Measurements taken from PubChem BioAssay (NCI).
“And” between values parts separate entries of the source, which are not always exact repeats. Equal values may be shown once.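 Interpolation was linear, between the two tested concentrations surrounding the appropriate level; five concentrations were tested over 48 hours in 96-well plates. The concentration for 50% growth inhibition is given as GI50. TGI is the concentration that stops growth completely.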

Tests used:
Test in all cases: growth of human tumour cells (NCI), 48 h
[1] = test system: COLO 205 colon
[2] = test system: HCT-116 colon
[3] = test system: SNB-75 CNS
[4] = test system: UACC-257 melanoma
[5] = test system: NCI-H226 lung
[6] = test system: NCI/ADR-RES ovarian
[7] = test system: SK-MEL-28 melanoma
[8] = test system: MDA-N
[9] = test system: A549 NSCLC
[10] = test system: BT-549 breast
[11] = test system: CCRF-CEM leukemia
[12] = test system: DU-145 prostate
[13] = test system: OVCAR-8 ovarian
[14] = test system: HCC-2998 colon
[15] = test system: HS 578T breast
[16] = test system: SW-620 colon
[17] = test system: RXF 393 renal
[18] = test system: HOP-92 NSCLC
[19] = test system: RPMI-8226 leukemia
[20] = test system: NCI-H460 lung
[21] = test system: T-47D breast
[22] = test system: OVCAR-3 ovarian
[23] = test system: NCI-H23 lung
[24] = test system: SK-OV-3 ovarian
[25] = test system: EKVX NSCLC
[26] = test system: KM12 colon
[27] = test system: MCF7 breast
[28] = test system: OVCAR-4 ovarian
[29] = test system: SK-MEL-5 melanoma
[30] = test system: MOLT-4 leukemia
[31] = test system: SNB-19 CNS
[32] = test system: IGROV1 ovarian
[33] = test system: SF-539 CNS
[34] = test system: M14 melanoma
[35] = test system: HCT-15 colon
[36] = test system: 786-0 renal
[37] = test system: U251 CNS
[38] = test system: LOX IMVI melanoma
[39] = test system: SK-MEL-2 melanoma
[40] = test system: SF-295 CNS
[41] = test system: SN12C renal
[42] = test system: CAKI-1 renal
[43] = test system: HL-60(TB) leukemia
[44] = test system: SF-268 CNS
[45] = test system: TK-10 renal
[46] = test system: HOP-62 NSCLC
[47] = test system: SR leukemia
[48] = test system: MDA-MB-231 breast
[49] = test system: NCI-H522 lung
[50] = test system: HT29 colon
[51] = test system: UO-31 renal
[52] = test system: MALME-3M melanoma
[53] = test system: PC-3 prostate
[54] = test system: UACC-62 melanoma
[55] = test system: ACHN renal
[56] = test system: K-562 leukemia
[57] = test system: MDA-MB-435
[58] = test system: OVCAR-5 ovarian
[59] = test system: A498 renal

Ic1cccc(/C=C/CN2CCN(CCOC(c3ccccc3)c3ccccc3)CC2)c1
TGI [1]: 65.1 µM | TGI [2]: 26.8 µM | TGI [3]: 37.6 µM | TGI [4]: 31.4 µM | TGI [5]: 40.2 µM | TGI [6]: 34.7 µM | TGI [7]: 50.1 µM | TGI [8]: 41.9 µM | TGI [9]: 45 µM | TGI [10]: 31.4 µM | TGI [11]: 32.4 µM | TGI [12]: 28.3 µM | TGI [13]: 30 µM | TGI [14]: 20.4 µM | TGI [15]: 76.2 µM | TGI [16]: > 100 µM | TGI [17]: 27.5 µM | TGI [18]: 29.4 µM | TGI [19]: 14.3 µM | TGI [20]: 32.4 µM | TGI [21]: 33.3 µM | TGI [22]: 32.4 µM | TGI [23]: 40 µM | TGI [24]: 63.4 µM | TGI [25]: 41.4 µM | TGI [26]: 31 µM | TGI [27]: 30.5 µM | TGI [28]: 51.1 µM | TGI [29]: 32.2 µM | TGI [30]: 35.9 µM | TGI [31]: 34.9 µM | TGI [32]: 40.9 µM | TGI [33]: 39.8 µM | TGI [34]: 38.8 µM | TGI [35]: 34.4 µM | TGI [36]: 33.7 µM | TGI [37]: 29.7 µM | TGI [38]: 26.8 µM | TGI [39]: 38.3 µM | TGI [40]: 33.1 µM | TGI [41]: 29.6 µM | TGI [42]: 41.4 µM | TGI [43]: 30.9 µM | TGI [44]: > 100 µM | TGI [45]: 31.6 µM | TGI [46]: 32.6 µM | TGI [47]: 28.9 µM | TGI [48]: 32.4 µM | TGI [49]: 36.8 µM | TGI [50]: 30.3 µM | TGI [51]: 29 µM | TGI [52]: 39.3 µM | TGI [53]: 66.3 µM | TGI [54]: 37.4 µM | TGI [55]: > 100 µM | TGI [56]: 23.9 µM | TGI [57]: 30.4 µM | TGI [58]: 36.9 µM | TGI [59]: 31.7 µM

Cc1[nH]c(/C=C2\C(=O)Nc3ccccc32)c(C)c1CCC(=O)O
TGI [1]: 43 µM and 45.9 µM | GI50 [2]: 25.9 µM | TGI [2]: > 100 µM | TGI [3]: 56.1 µM and 59.8 µM | GI50 [4]: 20.4 µM | TGI [4]: 63 µM and 81.1 µM | GI50 [5]: 15.2 µM | TGI [5]: 42.6 µM | TGI [6]: > 100 µM | GI50 [7]: 25.4 µM | TGI [7]: 80 µM and 92.6 µM | TGI [8]: > 100 µM | GI50 [9]: 24.3 µM | TGI [9]: > 100 µM | GI50 [10]: 22.5 µM | TGI [10]: 73.9 µM and > 100 µM | GI50 [11]: 28.3 µM | TGI [11]: > 100 µM | GI50 [12]: 35.4 µM | TGI [12]: > 100 µM | GI50 [13]: 34.7 µM | TGI [13]: > 100 µM | TGI [14]: > 100 µM | GI50 [15]: 9.45 µM | TGI [15]: 51.9 µM and > 100 µM | GI50 [16]: 18.8 µM | TGI [16]: 52.8 µM and 71.1 µM | GI50 [17]: 19.2 µM | TGI [17]: 63.3 µM and 90.5 µM | GI50 [18]: 12.7 µM | TGI [18]: 43.2 µM and 62.8 µM | TGI [19]: 65 µM and 75.3 µM | GI50 [20]: 21.3 µM | TGI [20]: 57 µM and > 100 µM | TGI [21]: > 100 µM | GI50 [22]: 28.8 µM | TGI [22]: > 100 µM and 73.3 µM | GI50 [23]: 20.3 µM | TGI [23]: 73.4 µM and > 100 µM | GI50 [24]: 19.5 µM | TGI [24]: 59.5 µM and 80.6 µM | GI50 [25]: 20.9 µM | TGI [25]: 89.9 µM and 97.4 µM | GI50 [26]: 7.79 µM | TGI [26]: 51.2 µM and > 100 µM | GI50 [27]: 23.9 µM | TGI [27]: > 100 µM | TGI [28]: > 100 µM | GI50 [29]: 19.8 µM | TGI [29]: 48.7 µM and 81.5 µM | GI50 [30]: 26.5 µM | TGI [30]: 69.4 µM and 84.4 µM | GI50 [31]: 20.9 µM | TGI [31]: > 100 µM | TGI [32]: > 100 µM | GI50 [33]: 12.3 µM | TGI [33]: 42.2 µM | GI50 [34]: 17 µM | TGI [34]: 49.3 µM and 58.8 µM | TGI [35]: > 100 µM | GI50 [36]: 44.1 µM | TGI [36]: > 100 µM | GI50 [37]: 38.1 µM | TGI [37]: > 100 µM | GI50 [38]: 23.1 µM | TGI [38]: 75.9 µM and 89.2 µM | TGI [39]: 38.5 µM and 38.8 µM | GI50 [40]: 24.9 µM | TGI [40]: > 100 µM | GI50 [41]: 24.7 µM | TGI [41]: > 100 µM | GI50 [42]: 15.9 µM | TGI [42]: 68.1 µM and > 100 µM | GI50 [43]: 20.2 µM | TGI [43]: 45.8 µM | GI50 [44]: 25.1 µM | TGI [44]: > 100 µM | GI50 [45]: 35 µM | TGI [45]: > 100 µM | GI50 [46]: 23.7 µM | TGI [46]: > 100 µM | GI50 [47]: 19.7 µM | TGI [47]: 48.7 µM and 57.9 µM | GI50 [48]: 20.7 µM | TGI [48]: > 73.7 µM and 75.9 µM | TGI [49]: > 100 µM | GI50 [50]: 27 µM | TGI [50]: > 80.8 µM | GI50 [51]: 11.6 µM | TGI [51]: 43.6 µM and > 100 µM | GI50 [52]: 10.7 µM | TGI [52]: 36.8 µM and 75.6 µM | GI50 [53]: 31.4 µM | TGI [53]: > 100 µM | GI50 [54]: 17.7 µM | TGI [54]: 58.1 µM and 95.6 µM | TGI [55]: > 100 µM | TGI [56]: > 100 µM | GI50 [57]: 23.5 µM | TGI [57]: 84.2 µM and > 100 µM | GI50 [58]: 21.5 µM | TGI [58]: 81.8 µM and 97.4 µM | GI50 [59]: 21.4 µM | TGI [59]: 61.7 µM and > 100 µM
